Experimental data from patent US11760984B2, “CRISPR protein inhibitors” (THE BROAD INSTITUTE, INC., priority 2017, dated 2023).

Assays:
[1] = system: U2OS.eGFP.PEST cells; test: Cell viability assay (ATP content), U2OS.eGFP.PEST cells; format: cell-based, human; settings: up to 20 μM, 24 h
Method: FIG. 22—Cell viability assay (ATP content) of U2OS.eGFP.PEST cells in the presence of compounds. Measurement ATP content of U2OS.eGFP.PEST cells upon incubating with BRD7087 and BRD5779 (5-20 μM) for 24 h. Error bars represent ±S.D. from technical replicates (n=3).
FIG. 66. Cell viability assay (ATP content) of U2OS.eGFP.PEST cells in the presence of compounds. Measurement of ATP content of U2OS.eGFP.PEST cells upon incubating with BRD7087 and BRD5779 (5-20 μM) for 24 h. Error bars represent ±S.D. from technical replicates (n=3).

[2] = target: T1, dCas9-cytidine deaminase conjugate (BE3) (UniProt P14739+P38483+Q99ZW2, D10A); test: BE3 base-editing of EMX1 gene in HEK293T cells; format: cell-based; settings: 1.25-20 μM, 72 h
T1 construct: made in house; host or cells: E. coli BL21 Star (DE3); purified protein:sgRNA complex lipofected into HEK293T cells
Method: Protein transfection of base editor BE3 into HEK293T cells. HEK293T cells were seeded on 48-well BioCoat poly-D-lysine plates (Corning) in 250 μL of antibiotic-free medium and transfected at ˜70% confluency. Prior to protein transfection, cells were incubated with 2 μL of DMSO-suspended BRD7087 or BRD5779 at the indicated concentration for 2-3 hours. BE3 protein was incubated with 1.1× molar excess of EMX1-targeting sgRNA at a final concentration ratio of 200 nM. 220 nM (based on a total well volume of 275 μL). The complex was mixed with 0.2 μL of compound for five minutes, incubated with 1.5 μL Lipofectamine 2000 (Thermo Fisher) and transfected according to the manufacturer's protocol plasmid delivery. […]
Purifications and sequencing of genomic DNA. […] Barcoded samples were pooled and purified by gel extraction (Qiagen) before quantification using the Qubit dsDNA HS Kit (Thermo Fisher) and qPCR (KAPA BioSystems) according to the manufacturer's instructions. Sequencing of pooled samples was performed using a single-end read from 260 to 300 bases on the MiSeq (Illumina) according to the manufacturer's instructions.
Analysis of base-edited sequences. Nucleotide frequencies were analyzed using a previously described MATLAB script 5. Briefly, the reads were aligned to the reference sequence via the Smith-Waterman algorithm. […]

Row | Compound | cytotoxicity: cellular ATP-levels [1] | inhibition of BE3-mediated base-editing (C→T conversion, words) [2]
1 | COc1ccc(-c2ccc3c(c2)[C@H]2[C@H](CCN2Cc2ccncc2)[C@@H](CO)N3)cc1 [BRD5779, ((3aR,4S,9bR)-8-(4-Methoxyphenyl)-1-(pyridin-4-ylmethyl)-2,3,3a,4,5,9b-hexahydro-1H-pyrrolo[3,2-c]quinolin-4-yl)methanol] | did not significantly alter the cellular ATP-levels | efficient and dose-dependent inhibition
2 | OC[C@H]1Nc2ccc(-c3cccc(F)c3)cc2[C@H]2[C@@H]1CCN2Cc1ccncc1 [BRD7087, ((3aR,4S,9bR)-8-(3-Fluorophenyl)-1-(pyridin-4-ylmethyl)-2,3,3a,4,5,9b-hexahydro-1H-pyrrolo[3,2-c]quinolin-4-yl)methanol] | did not significantly alter the cellular ATP-levels | efficient and dose-dependent inhibition
